# Measured values as given in ChEMBL document CHEMBL5032514, “Portobelamides A and B and Caciqueamide, Cytotoxic Peptidic Natural Products from a Caldora sp. Marine Cyanobacterium” (2021).
# Test system: NCI-H460
# Assay: Cytotoxicity against human NCI-H460 cells assessed as cell survival at 0.9 uM measured after 48 hrs by MTT assay
# Assay type: functional
# Conditions: read-out: Activity
row,Structure (SMILES),viability at 0.9 µM
1,C/C=C(\NC(=O)C(NC(=O)C(C)C(O)CCCCCCCCCCCCC(=O)CCCC)C(C)O)C(=O)NC(C)c1nc(C(=O)NC(C)C(C)=O)cs1 (stereo not drawn),78%
2,C#CCCC[C@@H]1NC(=O)[C@H](C(C)C)N(C)C(=O)[C@H](COC)N(C)C(=O)[C@H](C(C)C)NC(=O)[C@H](COC)N(C)C(=O)[C@H](C)N(C)C(=O)[C@H](C(C)C)N(C)C(=O)[C@@H]2CCCN2C(=O)[C@H](C(C)C)NC(=O)[C@H]([C@@H](C)CC)N(C)C(=O)[C@H](C(C)C)N(C)C(=O)[C@@H](C(C)C)OC(=O)[C@H]1C,97%
3,C#CCCC[C@@H]1NC(=O)[C@H](C(C)C)N(C)C(=O)[C@H](C)N(C)C(=O)[C@H](COC)NC(=O)[C@H](C(C)C)N(C)C(=O)[C@H](CC(C)C)N(C)C(=O)[C@@H]2CCCN2C(=O)[C@H](C(C)C)NC(=O)[C@H](COC)N(C)C(=O)[C@H](C(C)C)NC(=O)[C@@H](C(C)C)OC(=O)[C@H]1C,33%
